Test results taken from patent US11242337B2, “Compounds useful for treating gastrointestinal tract disorders” (Ardelyx, Inc., priority 2017, dated 2022).

Experiments:
NHE3 [1] = biological target: T1, NHE3 (Homo sapiens, UniProt P48764); assay: Cell-based assay of NHE-3 activity (pre-incubation inhibition), human; conditions: human Preincubation; for pIC50 / IC50: 0-30 μM test compound
T1 construct: expressed in transfected cells
T1 sequence (P48764 26-834): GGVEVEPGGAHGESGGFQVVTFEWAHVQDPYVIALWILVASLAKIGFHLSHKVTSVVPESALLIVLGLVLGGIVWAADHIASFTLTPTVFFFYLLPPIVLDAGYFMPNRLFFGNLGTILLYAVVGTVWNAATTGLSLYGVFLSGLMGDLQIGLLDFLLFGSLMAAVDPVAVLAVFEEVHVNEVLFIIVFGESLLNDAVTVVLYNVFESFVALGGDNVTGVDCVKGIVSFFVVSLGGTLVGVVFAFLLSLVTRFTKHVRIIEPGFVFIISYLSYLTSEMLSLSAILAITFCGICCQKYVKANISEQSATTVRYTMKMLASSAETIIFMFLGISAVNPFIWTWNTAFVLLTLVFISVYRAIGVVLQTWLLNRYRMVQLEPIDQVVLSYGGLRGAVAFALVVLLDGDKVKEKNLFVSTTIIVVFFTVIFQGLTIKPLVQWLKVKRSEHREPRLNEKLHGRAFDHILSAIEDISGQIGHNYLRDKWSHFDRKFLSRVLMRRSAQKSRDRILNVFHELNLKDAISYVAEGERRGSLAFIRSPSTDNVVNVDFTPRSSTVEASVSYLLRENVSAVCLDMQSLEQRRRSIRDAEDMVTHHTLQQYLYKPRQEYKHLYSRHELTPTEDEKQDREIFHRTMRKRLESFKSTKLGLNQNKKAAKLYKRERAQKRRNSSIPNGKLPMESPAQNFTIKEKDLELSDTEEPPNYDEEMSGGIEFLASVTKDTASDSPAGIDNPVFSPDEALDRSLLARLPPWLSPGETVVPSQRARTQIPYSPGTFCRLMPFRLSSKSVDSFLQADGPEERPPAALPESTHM
T1 sequence (Q99653 2-195 partner limits assumed): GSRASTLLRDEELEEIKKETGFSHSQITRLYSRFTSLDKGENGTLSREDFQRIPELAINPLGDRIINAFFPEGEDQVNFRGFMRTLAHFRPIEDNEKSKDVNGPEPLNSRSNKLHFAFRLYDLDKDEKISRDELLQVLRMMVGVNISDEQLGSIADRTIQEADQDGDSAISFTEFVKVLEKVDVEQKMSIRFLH
Procedure, shortened: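 Activity read as initial rate of BCECF fluorescence ratio change per minute (ex 439/505, em 538 nm) following NH4Cl prepulse acid loading. Compound (0–30 μM) present during 10 min Na+-free acidification at room temperature; cells were PS120 fibroblasts stably co-expressing human NHE3 and NHERF2.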

NHE3 [2] = biological target: T1, NHE3; assay: Cell-based assay of NHE-3 activity (persistent inhibition), human; conditions: human Persistence, 60 min incubation then washout
Procedure, shortened: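 Persistent inhibition: compound (0-30 μM, 60 min, RT, NaCl-HEPES pH 7.4) removed before assay. Human NHE3/NHERF2 PS120 cells were then BCECF-loaded during NH4Cl pulse (30 min, 37 °C), acidified in Na+-free buffer, and Na+ added 10 min after washout; antiport measured as initial fluorescence-ratio change per minute.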

O=C(NCCCCNC(=O)NCCOCCOCCNS(=O)(=O)c1ccc(O[C@H]2c3cc(Cl)cc(Cl)c3C[C@@H]2N2CC3CCC2C3)cc1)NCCOCCOCCNS(=O)(=O)c1ccc(O[C@H]2c3cc(Cl)cc(Cl)c3C[C@@H]2N2CC3CCC2C3)cc1 [Example 68]
% inhibition (NHE3 [1]): C (>70%) | pIC50 (NHE3 [1]): C (NHE3 pIC50 > 7) | % inhibition (NHE3 [2]): C (>70%) | pIC50 (NHE3 [2]): C (NHE3 pIC50 > 7)

O=C(NCCCCNC(=O)NCCOCCOCCNS(=O)(=O)c1ccc(O[C@H]2c3cc(Cl)cc(Cl)c3C[C@@H]2N2CC3CCC2CC3)cc1)NCCOCCOCCNS(=O)(=O)c1ccc(O[C@H]2c3cc(Cl)cc(Cl)c3C[C@@H]2N2CC3CCC2CC3)cc1 [Example 69, 1-[2-(2-[2-[(4-[[(1S,2S)-2-[2-Azabicyclo[2.2.2]octan-2-yl]-4,6-dichloro-2,3-dihydro-1H-inden-1-yl]oxy]benzene)sulfonamido]ethoxy]ethoxy)ethyl]-3-[4-([[2-(2-[2-[(4-[[(1S,2S)-2-[2-azabicyclo[2.2.2]octan-2-yl]-4,6-dichloro-2,3-dihydro-1H-inden-1-yl]oxy]benzene)sulfonamido]ethoxy]ethoxy)ethyl]carbamoyl]amino)butyl]urea]
% inhibition (NHE3 [1]): C (>70%) | pIC50 (NHE3 [1]): C (NHE3 pIC50 > 7) | % inhibition (NHE3 [2]): C (>70%) | IC50 (NHE3 [2]): 0.1 to 1 µM

O=C(NCCCCNC(=O)NCCOCCOCCNS(=O)(=O)c1ccc(O[C@H]2c3cc(Cl)cc(Cl)c3C[C@@H]2N2C3CCCC2CC3)cc1)NCCOCCOCCNS(=O)(=O)c1ccc(O[C@H]2c3cc(Cl)cc(Cl)c3C[C@@H]2N2C3CCCC2CC3)cc1 [Example 70, 3-[2-(2-[2-[(4-[[(1S,2S)-2-[8-azabicyclo[3.2.1]octan-8-yl]-4,6-dichloro-2,3-dihydro-1H-inden-1-yl]oxy]benzene)sulfonamido]ethoxy]ethoxy)ethyl]-1-[4-([[2-(2-[2-[(4-[[(1S,2S)-2-[8-azabicyclo[3.2.1]octan-8-yl]-4,6-dichloro-2,3-dihydro-1H-inden-1-yl]oxy]benzene)sulfonamido]ethoxy]ethoxy)ethyl]carbamoyl]amino)butyl]urea]
% inhibition (NHE3 [1]): C (>70%) | % inhibition (NHE3 [2]): C (>70%)

O=C(NCCCCNC(=O)NCCOCCOCCNS(=O)(=O)c1ccc(O[C@H]2c3cc(Cl)cc(Cl)c3C[C@@H]2N2C3CCCC2CCC3)cc1)NCCOCCOCCNS(=O)(=O)c1ccc(O[C@H]2c3cc(Cl)cc(Cl)c3C[C@@H]2N2C3CCCC2CCC3)cc1 [Example 71, 1-[2-(2-[2-[(4-[[(1S,2S)-2-[9-Azabicyclo[3.3.1]nonan-9-yl]-4,6-dichloro-2,3-dihydro-1H-inden-1-yl]oxy]benzene)sulfonamido]ethoxy]ethoxy)ethyl]-3-[4-([[2-(2-[2-[(4-[[(1S,2S)-2-[9-azabicyclo[3.3.1]nonan-9-yl]-4,6-dichloro-2,3-dihydro-1H-inden-1-yl]oxy]benzene)sulfonamido]ethoxy]ethoxy)ethyl]carbamoyl]amino)butyl]urea]
% inhibition (NHE3 [1]): B (40-70%) | pIC50 (NHE3 [1]): A (NHE3 pIC50 < 6) | % inhibition (NHE3 [2]): B (40-70%) | pIC50 (NHE3 [2]): A (NHE3 pIC50 < 6)

CN1CCN([C@H]2Cc3c(Cl)cc(Cl)cc3[C@@H]2Oc2ccc(S(=O)(=O)NCCOCCOCCNC(=O)NCCCCNC(=O)NCCOCCOCCNS(=O)(=O)c3ccc(O[C@H]4c5cc(Cl)cc(Cl)c5C[C@@H]4N4CCN(C)CC4)cc3)cc2)CC1 [Example 72, 3-[2-(2-[2-[(4-[[(1S,2S)-4,6-Dichloro-2-(4-methylpiperazin-1-yl)-2,3-dihydro-1H-inden-1-yl]oxy]benzene)sulfonamido]ethoxy]ethoxy)ethyl]-1-[4-([[2-(2-[2-[(4-[[(1S,2S)-4,6-dichloro-2-(4-methylpiperazin-1-yl)-2,3-dihydro-1H-inden-1-yl]oxy]benzene)sulfonamido]ethoxy]ethoxy)ethyl]carbamoyl]amino)butyl]urea a; bis(trifluoroacetic acid)]
% inhibition (NHE3 [1]): C (>70%) | % inhibition (NHE3 [2]): C (>70%) | IC50 (NHE3 [2]): 0.1 to 1 µM

Cc1cc(S(=O)(=O)NCCOCCOCCNC(=O)NCCCCNC(=O)NCCOCCOCCNS(=O)(=O)c2ccc(O[C@H]3c4cc(Cl)cc(Cl)c4C[C@@H]3N3CCN(C)CC3)c(C)c2)ccc1O[C@H]1c2cc(Cl)cc(Cl)c2C[C@@H]1N1CCN(C)CC1 [Example 73]
% inhibition (NHE3 [1]): C (>70%) | IC50 (NHE3 [1]): 0.1 to 1 µM | % inhibition (NHE3 [2]): B (40-70%) | pIC50 (NHE3 [2]): A (NHE3 pIC50 < 6)

CC(=O)N1CCN([C@H]2Cc3c(Cl)cc(Cl)cc3[C@@H]2Oc2ccc(S(=O)(=O)NCCOCCOCCNC(=O)NCCCCNC(=O)NCCOCCOCCNS(=O)(=O)c3ccc(O[C@H]4c5cc(Cl)cc(Cl)c5C[C@@H]4N4CCN(C(C)=O)CC4)cc3)cc2)CC1 [Example 74, 3-[2-(2-[2-[(4-[[(1S,2S)-2-(4-Acetylpiperazin-1-yl)-4,6-dichloro-2,3-dihydro-1H-inden-1-yl]oxy]benzene)sulfonamido]ethoxy]ethoxy)ethyl]-1-[4-([[2-(2-[2-[(4-[[(1S,2S)-2-(4-acetylpiperazin-1-yl)-4,6-dichloro-2,3-dihydro-1H-inden-1-yl]oxy]benzene)sulfonamido]ethoxy]ethoxy)ethyl]carbamoyl]amino)butyl]urea]
% inhibition (NHE3 [1]): C (>70%) | pIC50 (NHE3 [1]): A (NHE3 pIC50 < 6) | % inhibition (NHE3 [2]): A (NHE3 < 40%) | pIC50 (NHE3 [2]): A (NHE3 pIC50 < 6)

CC(=O)N1CCN([C@H]2Cc3c(Cl)cc(Cl)cc3[C@@H]2Oc2ccc(S(=O)(=O)NCCOCCOCCNC(=O)NCCCCNC(=O)NCCOCCOCCNS(=O)(=O)c3ccc(O[C@H]4c5cc(Cl)cc(Cl)c5C[C@@H]4N4CCN(C(C)=O)CC4)c(C)c3)cc2C)CC1 [Example 75, 3-[2-(2-[2-[(4-[[(1S,2S)-2-(4-Acetylpiperazin-1-yl)-4,6-dichloro-2,3-dihydro-1H-inden-1-yl]oxy]-3-methylbenzene)sulfonamido]ethoxy]ethoxy)ethyl]-1-[4-([[2-(2-[2-[(4-[[(1S,2S)-2-(4-acetylpiperazin-1-yl)-4,6-dichloro-2,3-dihydro-1H-inden-1-yl]oxy]-3-methylbenzene)sulfonamido]ethoxy]ethoxy)ethyl]carbamoyl]amino)butyl]urea; bis(trifluoroacetic acid)]
% inhibition (NHE3 [1]): B (40-70%) | IC50 (NHE3 [1]): 0.1 to 1 µM | % inhibition (NHE3 [2]): A (NHE3 < 40%)

CN(C)C(=O)N1CCN([C@H]2Cc3c(Cl)cc(Cl)cc3[C@@H]2Oc2ccc(S(=O)(=O)NCCOCCOCCNC(=O)NCCCCNC(=O)NCCOCCOCCNS(=O)(=O)c3ccc(O[C@H]4c5cc(Cl)cc(Cl)c5C[C@@H]4N4CCN(C(=O)N(C)C)CC4)cc3)cc2)CC1 [Example 76, 4-[(1S,2S)-4,6-dichloro-1-[4-[(2-[2-[2-([[4-([[2-(2-[2-[4-(4-[[(1S,2S)-4,6-dichloro-2-[4-(dimethylcarbamoyl)piperazin-1-yl]-2,3-dihydro-1H-inden-1-yl]oxy]benzene)sulfonamido]ethoxy]ethoxy)ethyl]carbamoyl]amino)butyl]carbamoyl]amino)ethoxy]ethoxy]ethyl)sulfamoyl]phenoxy]-2,3-dihydro-1H-inden-2-yl]-N,N-dimethylpiperazine-1-carboxamide]
% inhibition (NHE3 [1]): C (>70%) | IC50 (NHE3 [1]): < 0.1 µM | % inhibition (NHE3 [2]): A (NHE3 < 40%) | IC50 (NHE3 [2]): > 1 µM
